The values below come from US7671069B2, “Tricyclic, heteroaromatic compounds modulating CXCR4 and/ or CXCR7” (ChemoCentryx, Inc., priority 2006, dated 2010).

Assay [1] deals with T1, CCXCKR2 (CXCR7) (Homo sapiens, UniProt P25106).
T1 construct: expressed in transfected cells; host or cells: MDA-MB-435S transfected with pcDNA3.1(+)-hRDC1 (G418 selected) and/or MCF-7 (endogenous receptor)
The assay can be described thus: Displacement of 125I SDF-1 from CCXCKR2 (CXCR7) on MCF-7 and/or MDA-MB-435S cells. It counts as binding. To be noted: second activity CXCR4/CXCR7. Here is the method:
The ability of the compounds to displace the labeled chemokine from the CCXCKR2 receptor sites at multiple concentrations was then determined with the screening process.
Reagents and Cells. […] SDF-1 was purchased from Perkin-Elmer Life Sciences, Inc. (Boston, Mass.). The MCF-7 (adenocarcinoma; mammary gland) cell line was obtained from the American Type Culture Collection (Manassas, Va.) or and was cultured in DMEM (Mediatech, Herudon, Va.) supplemented with 10% fetal bovine serum (FBS) (HyClone Logan, Utah) and bovine insulin (0.01 mg/mL) (Sigma, St. Louis, Mo.) at 37° C. in a humidified incubator at a 5% CO2/air mixture. CCXCKR2 transfected MDA-MB-435S were produced as described below. MDA-MB-435S human breast cancer line, was purchased from ATCC, and cultured in DMEM/10% FBS medium. The complete coding sequence of the gene encoding CCXCKR2 (a.k.a.CXCR7, hRDC1), was isolated from MCF-7 cells using μMACs mRNA isolation kit (Miltenyi Biotec, Auburn, Calif.). DNA contamination was removed by DNase digestion via RNeasy columns (Qiagen, Inc., Valencia, Calif.) and cDNA was generated using GeneAmp RNA PCR Core Kit (Applied Biosystems, Foster City, Clif.). PCR of cDNA samples was performed using Taq PCR Master Mix kit (Qiagen, Inc.) and hRDC1 primers harboring 5′ and 3′ Not I sites (hRDC1F 5′ […]-3′ (SEO ID NO:11), hRDC1R 5′-[…]-3′ (SEO ID NO: 12)) Not I digested PCR product was ligated into Not I digested pcDNA3.1 (+)(Invitrogen, Carlsbad, Calif.) and screened for orientation and sequence confirmed. Plasmid DNA was then isolated from overnight bacterial cultures by Maxiprep (Qiagen, Inc.). Plasmid DNA (10μg) was added to MDA-MB-435s cells and cells were electroporated (0.22 kV, 960uF) via Gene Pulser (Biorad laboratories, Hercules, Calif.). 48 hr post-electroporation, cells were transferred to selection medium (1000 ug/ml G418).
Binding Analysis. Target compounds were tested to determine their ability to bind with CCXCKR2 sites on MCF-7 and/or MDA-MB-435S cells. Efficiency-maximized radioligand binding using filtration protocols as described in Dairaghi D J, et al., HHV8-encoded vMIP-I selectively engages chemokine receptor CCR5. Agonist and antagonist profiles of viral chemokines, J. Biol. Chem. Jul. 30, 1999; 274(31): 21569-74 and Gosling J, et al., Cutting edge: identification of a novel chemokine receptor that binds dendritic cell-i and T cell-active chemokines including ELC, SLC, and TECK., J. Immunol. Mar. 15, 2000; 164(6):2851-6 was used.
In these assays, MCF-7 and/or MDA-MB-435S cells were interrogated with the target compounds and the ability of these compounds to displace ^125I radiolabeled SDF-1 was assessed using the protocol described in Dairaghi and Gosling. The target compounds were added to the plate to the indicated concentration and were then incubated with cells followed by the addition of radiolabeled chemokine (^125I SDF-1) for 3 hr at 4° C. in the following binding medium (25 mM HEPES, 140 mM NaCl, 1 mM CaCl2, 5 mM MgCl2 and 0.2% bovine serum albumin, adjusted to pH 7.1). All assays were then incubated for 3 hrs at 4° C. with gentle agitation. Following incubation in all binding assays, reactions were aspirated onto PEI-treated GF/B glass filters (Packard) using a cell harvester (Packard) and washed twice (25 mM HEPES, 500 mM NaCl, 1 mM CaCl2, 5 mM MgCl2, adjusted to pH 7.1). Scintillant (MicroScint 10, Packard) was added to the wells, and the filters were counted in a Packard Topcount scintillation counter. Data were analyzed and plotted using Prism (GraphPad Prism version 3.0a for Macintosh, GraphPad Software, www.graphpad.com).
For orientation: In a radioligand displacement assay an active substance lowers the binding of a labelled ligand.

In assay [2] the target is T2, CXCR4 (Homo sapiens, UniProt P61073).
T2 construct: endogenous in cells; host or cells: CEM-Nkr, CCRF-CEM (ATCC #CCL-119), Jurkat (ATCC #TIB-152), Molt-4 (ATCC# CRL-1582); IL-2 stimulated lymphocytes from human blood
T2 sequence (P61073 whole entry): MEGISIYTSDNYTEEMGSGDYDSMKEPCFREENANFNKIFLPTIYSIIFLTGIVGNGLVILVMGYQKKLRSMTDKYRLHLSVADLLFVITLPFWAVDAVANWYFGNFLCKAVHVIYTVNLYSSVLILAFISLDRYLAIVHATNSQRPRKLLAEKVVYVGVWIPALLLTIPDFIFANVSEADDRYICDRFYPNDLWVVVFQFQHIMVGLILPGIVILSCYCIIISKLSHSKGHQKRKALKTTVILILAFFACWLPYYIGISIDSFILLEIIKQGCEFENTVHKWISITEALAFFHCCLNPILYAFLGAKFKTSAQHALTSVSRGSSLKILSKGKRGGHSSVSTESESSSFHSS
The assay can be described thus: Inhibition of SDF-1 ligand binding or chemotaxis assay for CXCR4. To be noted: first (or only) activity listed in CXCR4/CXCR7; chemotaxis assay or binding assays. How it is done: CEM-Nkr, CCRF-CEM (ATCC #CCL-119), Jurkat (ATCC #TIB-152), Molt-4 (ATCC# CRL-1 582), cell lines, all endogenously expressing CXCR4, were used in compound screening and subsequent assays. These cell lines were cultured as a suspension in RPMI-1640 medium supplemented with 2 mM L-glutamine, 1.5 g/L sodium bicarbonate, 4.5 g/L glucose, 10 mM HEPES, 1 mM sodium pyruvate, and 10% FBS. Cells were grown under 5% CO2/95% air, 100% humidity at 37° C. and subcultured twice weekly at 1:6 (cells were cultured at a density range of 1×10^5 to 2×10^6 cells/mL) and harvested at 1×10^6 cells/mL.
Il-2 stimulated lymphocytes were isolated from fresh human blood using density separation and centrifigation. Briefly, whole blood is incubated with equal parts 3% dextran and allowed to separate for 45 minutes. After separation, the top layer is then layered on top of 15 mls of Ficoll (15 mls of Ficoll for every 30 mls of blood suspension) and centrifuged for 30 minutes at 400×g with no brake. The pellet at the bottom of the tube is then isolated and resuspended into PharmLyse RBC Lysis Buffer (BD Biosciences, San Jose, Calif.) after which the sample is again centrifuged for 10 minutes at 400×g with brake. The remaining cell pellet is resuspended as appropriate and stimulated with PHA for 2 days, followed by culturing in the presence of human IL-2 cytokine.
Cells were centrifuged and resuspended in assay buffer (20 mM HEPES pH 7.1, 140 mM NaCl, 1 mM CaCl2, 5 mM MgCl2, and with 0.2% bovine serum albumin) to a concentration of 4×10^6 cells/mL for cell lines. Binding assays were set up as follows. 0.15 mL of cells (6×10^5 cells/well) was added to the assay plates containing the compounds, giving a final concentration of ˜2-10 μM each compound for screening (or part of a dose response for compound IC50 determinations). Then 0.1 mL of ^125I labeled SDF-1α (obtained from Perkin Elmer Life Sciences, Boston, Mass.) diluted in assay buffer to a final concentration of ˜[…], yielding ˜30,000 cpm per well, was added, the plates sealed and incubated for approximately 3 hours at 4° C. on a shaker platform. Reactions were aspirated onto GF/B glass filters pre-soaked in 0.3% polyethyleneimine (PEI) solution, on a vacuum cell harvester (Packard Instruments; Meriden, Conn.). Scintillation fluid (40 μl; Microscint 20, Packard Instruments) was added to each well, the plates were sealed and radioactivity measured in a Topcount scintillation counter (Packard Instruments). Control wells containing either diluent only (for total counts) or excess SDF1a (1 μg/mL, for non-specific binding) were used to calculate the percent of total inhibition for compound. The computer program Prism from Graph Pad, Inc. (San Diego, Calif.) was used to calculate IC50 values. IC50 values are those concentrations required to reduce the binding of radiolabeled SDF-1α to the receptor by 50%. (For further descriptions of ligand binding and other functional assays, see Dairaghi, et al., J. Biol. Chem. 274:21569-21574 (1999), Penfold, et al., Proc. Natl. Acad. Sci. USA. 96:9839-9844 (1999), and Dairaghi, et al,. J. Biol. Chem. 272:28206-28209 (1997)).
Chemotaxis assays were performed using 5 μm pore polycarbonate, polyvinylpyrrolidone-coated filters in 96-well chemotaxis chambers (Neuroprobe; Gaithersburg, Md.) using chemotaxis buffer (Hank's balanced salt solution (HBSS) and 1% FBS). CXCR4 ligand (i.e., SDF1a, R&D Systems; Minneapolis, Minn.) are use to evaluate compound mediated inhibition of CXCR4 mediated migration. Other chemokines (i.e., TECK; R&D Systems; Minneapolis, Minn.) are used as specificity controls. The lower chamber was loaded with 29 μl of chemokine (i.e., 0.1 nM SDF1a); the top chamber contained 50,000 Jurkat cells or IL-2 lymphocytes in 20 μl. […]

Bounds are passed on as bounds.

T1 sequence (P25106 whole entry): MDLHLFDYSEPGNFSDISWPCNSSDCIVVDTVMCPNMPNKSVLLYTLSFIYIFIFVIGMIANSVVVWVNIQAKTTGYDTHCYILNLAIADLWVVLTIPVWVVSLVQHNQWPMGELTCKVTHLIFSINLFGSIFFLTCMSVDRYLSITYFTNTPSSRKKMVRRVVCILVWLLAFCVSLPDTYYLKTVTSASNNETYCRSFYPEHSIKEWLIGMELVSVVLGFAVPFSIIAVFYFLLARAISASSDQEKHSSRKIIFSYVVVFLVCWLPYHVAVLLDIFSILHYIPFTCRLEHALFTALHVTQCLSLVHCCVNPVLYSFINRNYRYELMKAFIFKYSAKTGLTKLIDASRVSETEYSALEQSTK

Usually IC50 stands for the point on the concentration scale where inhibition reaches its midpoint. For `COc1ccc2c(c1)c1c(cnn1CC(=O)NCCN1CCCC3CCCCC31)c(=O)n2C` (centres unmarked) [Compound 13], the concentration for half-maximal inhibition (IC50) in assay [1] and in assay [2] was less than 1000 nM in each case.
On to `COc1ccc2c(c1)c1c(cnn1CC(=O)NCCNC1CCCCC1)c(=O)n2C` [Compound 31], for which the half-inhibitory concentration (IC50) is less than 1000 nM in assay [1] and more than 10000 nM in assay [2].
As to `Cc1ccc2c(c1)-c1c(cnn1CC(=O)NCCN(C)C1CCCCC1)CO2` [Compound 2], the concentration for half-maximal inhibition (IC50) is less than 1000 nM in assay [1] and 1000 to 10000 nM in assay [2].
Turning to `COc1ccc2c(c1)c1c(cnn1CC(=O)NCCN(C)C1CCCCC1)c(=O)n2C` [Compound 30], the 50% inhibitory concentration (IC50) in assay [1] is less than 1000 nM; in assay [2], 1000 to 10000 nM.
Taken in the same sequence, the figures for `COc1ccc2oc(=O)c3cnn(CC(=O)NCCN(C)C4CCCCC4)c3c2c1` [Compound 24] were less than 1000 nM and less than 1000 nM.
As to `COc1ccc2c(c1)c1c(cnn1CC(=O)NCCN(C)C1CCCCCCC1)c(=O)n2C` [Compound 32], the results for the IC50 in assay [1] and in assay [2] were less than 1000 nM and 1000 to 10000 nM, respectively.
Taken in the same sequence, the figures for `Cc1ccc2oc(=O)c3cnn(CC(=O)NCCN(C)C4CCCCC4)c3c2c1` [Compound 1] were less than 1000 nM and 1000 to 10000 nM.
